Reference: patent US8183263B2 (priority 2007, dated 2012)

Each compound was assayed on HCV replicon (assay: HCV replicon replication assay (NPT level by captured ELISA)). Settings: Hepatitis C virus, 72 h; Huh-7 HCV replicon-containing cells, three days incubation; read-out: Activity (inhibition of HCV replicon replication).
Format: cell-based
Summary of the method: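 Huh-7 cells carrying HCV subgenomic replicon (NS3–NS5B, neo reporter) treated 3 days at 37 °C with 6 concentrations from 10 to 0.03 micromolar in G418-free medium, equal DMSO across wells. Replication measured on day four as NPTII level by in-cell captured ELISA on fixed cells; interferon alpha as positive control.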
With `CC/C=C\CCCCOc1ccc(Nc2nc(-c3cccnc3)c(F)s2)cc1C(F)(F)F` [Cmp 165, (Z)-5-fluoro-N-(4-(oct-5-enyloxy)-3-(trifluoromethyl)phenyl)-4-(pyridin-3-yl)thiazol-2-amine] the EC50 was under 1 µM. `CCCCCCCCOc1ccc(Nc2nc(-c3ccncc3)c(F)s2)cc1C(F)(F)F` [Cmp 166, 5-fluoro-N-(4-(octyloxy)-3-(trifluoromethyl)phenyl)-4-(pyridin-4-yl)thiazol-2-amine] showed an EC50 of under 1 µM. For `CCCCCCCCc1ccc(Nc2nc(-c3ccncc3)c(F)s2)cc1C(F)(F)F` [Cmp 167, 5-fluoro-N-(4-octyl-3-(trifluoromethyl)phenyl)-4-(pyridin-4-yl)thiazol-2-amine], the EC50 was under 1 µM. Compound `CCCCCCCCc1ccc(Nc2nc(-c3ccc(F)nc3)cs2)cc1C(F)(F)F` [Cmp 168, 4-(6-fluoropyridin-3-yl)-N-(4-octyl-3-(trifluoromethyl)phenyl)thiazol-2-amine] has an EC50 of under 1 µM. `CCCCCCCCOc1ccc(Nc2nc(-c3cccnc3)c(Cl)s2)cc1C(C)=O` [Cmp 169, 1-(5-(5-chloro-4-(pyridin-3-yl)thiazol-2-ylamino)-2-(octyloxy)phenyl)ethanone] showed an EC50 of under 1 µM. `CCCCCCCCc1ccc(Nc2nc(-c3cnccn3)c(Cl)s2)cc1C(F)(F)F` [Cmp 170, 5-chloro-N-(4-octyl-3-(trifluoromethyl)phenyl)-4-(pyrazin-2-yl)thiazol-2-amine] was tested, and the EC50 was under 1 µM. `FC(F)(F)c1cc(Nc2nc(-c3cccnc3)cs2)ccc1OC1Cc2ccccc2C1` [Cmp 171, N-(4-(2,3-dihydro-1H-inden-2-yloxy)-3-(trifluoromethyl)phenyl)-4-(pyridin-3-yl)thiazol-2-amine] was tested, and the EC50 was under 1 µM. For `CCCC/C=C\CCOc1ccc(Nc2nc(-c3cccnc3)c(F)s2)cc1C(F)(F)F` [Cmp 172, (Z)-5-fluoro-N-(4-(oct-3-enyloxy)-3-(trifluoromethyl)phenyl)-4-(pyridin-3-yl)thiazol-2-amine], the EC50 was under 1 µM. For `Fc1ccc(-c2nc(Nc3ccc(OCCCC4CCCC4)c(C(F)(F)F)c3)sc2F)cn1` [Cmp 173, N-(4-(3-cyclopentylpropoxy)-3-(trifluoromethyl)phenyl)-5-fluoro-4-(6-fluoropyridin-3-yl)thiazol-2-amine], the EC50 was under 1 µM. Compound `CCCCCCCCc1ccc(Nc2nc(-c3ccc(F)nc3)c(F)s2)cc1C(F)(F)F` [Cmp 174, 5-fluoro-4-(6-fluoropyridin-3-yl)-N-(4-octyl-3-(trifluoromethyl)phenyl)thiazol-2-amine] has an EC50 of under 1 µM. `CCCCCCCCOc1ccc(Nc2nc(-c3ccc(F)nc3)c(F)s2)cc1C(F)(F)F` [Cmp 175, 5-fluoro-4-(6-fluoropyridin-3-yl)-N-(4-(octyloxy)-3-(trifluoromethyl)phenyl)thiazol-2-amine] was tested, and the EC50 was under 1 µM. Work on `Fc1sc(Nc2ccc(OC3Cc4ccccc4C3)c(C(F)(F)F)c2)nc1-c1cccnc1` [Cmp 176, N-(4-(2,3-dihydro-1H-inden-2-yloxy)-3-(trifluoromethyl)phenyl)-5-fluoro-4-(pyridin-3-yl)thiazol-2-amine] yielded an EC50 of under 1 µM. `CCCCCCCCOc1ccc(Nc2nc(-c3ccc4nncn4c3)cs2)cc1C(F)(F)F` [Cmp 177, 4-([1,2,4]triazolo[4,3-a]pyridin-6-yl)-N-(4-(octyloxy)-3-(trifluoromethyl)phenyl)thiazol-2-amine] was tested, and the EC50 was under 1 µM. With `CCCCCCCCc1ccc(Nc2nc(-c3ccc4nncn4c3)cs2)cc1C(F)(F)F` [Cmp 178, 4-([1,2,4]triazolo[4,3-a]pyridin-6-yl)-N-(4-octyl-3-(trifluoromethyl)phenyl)thiazol-2-amine] the EC50 was under 1 µM. `CCCCCCCCc1cc2cc(Nc3nc(-c4ccc5nncn5c4)cs3)ccc2o1` [Cmp 179, 4-([1,2,4]triazolo[4,3-a]pyridin-6-yl)-N-(2-octylbenzofuran-5-yl)thiazol-2-amine] showed an EC50 of under 1 µM. `CCCCCCCCc1ccc(Nc2nc(-c3cncc(C#N)c3)cs2)cc1C(F)(F)F` [Cmp 180, 5-(2-(4-octyl-3-(trifluoromethyl)phenylamino)thiazol-4-yl)nicotinonitrile] was tested, and the EC50 was under 1 µM. `CCCCCCCCOc1ccc(Nc2nc(-c3cncc(C#N)c3)c(F)s2)cc1C(F)(F)F` [Cmp 181, 5-(5-fluoro-2-(4-(octyloxy)-3-(trifluoromethyl)phenylamino)thiazol-4-yl)nicotinonitrile] showed an EC50 of under 1 µM. Work on `CCCCCCCCc1ccc(Nc2nc(-c3cncc(C#N)c3)c(F)s2)cc1C(F)(F)F` [Cmp 182, 5-(5-fluoro-2-(4-octyl-3-(trifluoromethyl)phenylamino)thiazol-4-yl)nicotinonitrile] yielded an EC50 of under 1 µM. Compound `CCCCCCCCc1oc2ccc(Nc3nc(-c4cccnc4)cs3)cc2c1Cl` [Cmp 183, N-(3-chloro-2-octylbenzofuran-5-yl)-4-(pyridin-3-yl)thiazol-2-amine] has an EC50 of under 1 µM. `CCCCCCCCOc1ccc(Nc2nc(-c3cc(F)sc3C(N)=O)cs2)cc1C(F)(F)F` [Cmp 184, 5-fluoro-3-(2-(4-(octyloxy)-3-(trifluoromethyl)phenylamino)thiazol-4-yl)thiophene-2-carboxamide] showed an EC50 of under 1 µM. For `CCCCCCCCc1ccc(Nc2nc(-c3ccc(O)c(C(N)=O)c3)c(Cl)s2)cc1C(F)(F)F` [Cmp 185, 5-(5-chloro-2-(4-octyl-3-(trifluoromethyl)phenylamino)thiazol-4-yl)-2-hydroxybenzamide], the EC50 was under 1 µM. For `CCCCCCCCOc1ccc(Nc2nc(-c3ccc(O)c(C(N)=O)c3)c(Cl)s2)cc1C(F)(F)F` [Cmp 186, 5-(5-chloro-2-(4-(octyloxy)-3-(trifluoromethyl)phenylamino)thiazol-4-yl)-2-hydroxybenzamide], the EC50 was under 1 µM. Compound `CCCCCCCCOc1ccc(Nc2nc(-c3cnc4[nH]c(=O)[nH]c4c3)cs2)cc1C(F)(F)F` [Cmp 187, 6-(2-(4-(octyloxy)-3-(trifluoromethyl)phenylamino)thiazol-4-yl)-1H-imidazo[4,5-b]pyridin-2(3H)-one] has an EC50 of under 1 µM. `CCCCCCCCOc1ccc(Nc2nc(-c3ccsc3C(N)=O)c(F)s2)cc1C(F)(F)F` [Cmp 188, 3-(5-fluoro-2-(4-(octyloxy)-3-(trifluoromethyl)phenylamino)thiazol-4-yl)thiophene-2-carboxamide] gave an EC50 of under 1 µM. Compound `CCCCCCCCc1oc2ccc(Nc3nc(-c4cccnc4)c(F)s3)cc2c1Cl` [Cmp 189, N-(3-chloro-2-octylbenzofuran-5-yl)-5-fluoro-4-(pyridin-3-yl)thiazol-2-amine] has an EC50 of under 1 µM. `Fc1sc(Nc2ccc(OCCCCC3CCCC3)c(C(F)(F)F)c2)nc1-c1cccnc1` [Cmp 190, N-(4-(4-cyclopentylbutoxy)-3-(trifluoromethyl)phenyl)-5-fluoro-4-(pyridin-3-yl)thiazol-2-amine] was tested, and the EC50 was under 1 µM. In the case of `Fc1sc(Nc2ccc(OCCC#CC3CCCC3)c(C(F)(F)F)c2)nc1-c1cccnc1` [Cmp 191, N-(4-(4-cyclopentylbut-3-ynyloxy)-3-(trifluoromethyl)phenyl)-5-fluoro-4-(pyridin-3-yl)thiazol-2-amine], the EC50 is reported as under 1 µM. Compound `CCCOCCCCCc1ccc(Nc2nc(-c3cccnc3)c(F)s2)cc1C(F)(F)F` [Cmp 192, 5-fluoro-N-(4-(5-propoxypentyl)-3-(trifluoromethyl)phenyl)-4-(pyridin-3-yl)thiazol-2-amine] has an EC50 of under 1 µM. Compound `CCCCCCCCc1cc2cc(Nc3nc(-c4cncc(C#N)c4)cs3)ccc2o1` [Cmp 203, 5-(2-(2-octylbenzofuran-5-ylamino)thiazol-4-yl)nicotinonitrile] has an EC50 of under 1 µM.
